IC50 data for 42 compounds are collected here from patent US11634412B2, “3-phosphoglycerate dehydrogenase inhibitors and uses thereof” (Raze Therapeutics, Inc., priority 2016, dated 2023).

One assay deals with T1, Full length (FL) 3-Phosphoglycerate Dehydrogenase (PHGDH) (Homo sapiens, UniProt O43175).
T1 construct: Full length (FL) 3-Phosphoglycerate Dehydrogenase (PHGDH) Diaphorase coupled assay (500 uM NAD)
T1 sequence (O43175 1-533): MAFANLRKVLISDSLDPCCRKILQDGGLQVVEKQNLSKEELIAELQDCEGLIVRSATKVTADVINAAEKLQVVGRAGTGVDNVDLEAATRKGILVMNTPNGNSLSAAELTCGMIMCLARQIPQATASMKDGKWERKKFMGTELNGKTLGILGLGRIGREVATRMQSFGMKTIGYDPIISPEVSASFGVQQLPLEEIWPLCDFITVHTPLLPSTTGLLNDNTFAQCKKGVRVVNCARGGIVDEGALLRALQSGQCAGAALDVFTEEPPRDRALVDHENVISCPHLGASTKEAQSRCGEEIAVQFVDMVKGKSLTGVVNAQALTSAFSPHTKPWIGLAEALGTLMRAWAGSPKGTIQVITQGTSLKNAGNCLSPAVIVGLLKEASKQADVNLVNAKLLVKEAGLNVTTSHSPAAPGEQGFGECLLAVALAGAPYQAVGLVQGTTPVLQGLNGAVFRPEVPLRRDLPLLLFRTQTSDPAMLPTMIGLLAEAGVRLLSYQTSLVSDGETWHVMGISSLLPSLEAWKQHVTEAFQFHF
Briefly: Full length (FL) PHGDH Diaphorase coupled assay (20 uM NAD). It counts as biochemical. The note with it: full-length PHGDH 10 nM, 30° C. 60 minutes, resorufin fluorescence. On the procedure:
(§1) PHGDH activity was determined by detecting the NADH produced during the reaction. Diaphorase was used to catalyze the oxidation of NADH with the concomitant reduction of resazurin to the fluorescent product resorufin. Resorufin fluorescence quantitatively reflected the production of NADH by the PHGDH reaction. To drive the forward reaction, two enzymes in the serine synthesis pathway subsequent to PHGDH, Phosphoserine aminotransferase (PSAT1) and phosphoserine phosphatase (PSPH) were also added to the reaction.
As usually defined, the IC50 is the concentration that gives 50% inhibition. `CC(=O)NS(=O)(=O)N1CCC(NC(=O)c2cc3c(Cl)c(Cl)ccc3n2C)(c2cccc(C(=O)O)c2)CC1` [I-151 e10] gave a concentration for half-maximal inhibition (IC50) of 1000 to 5000 nM.
On the same count and under the same terms, under `CNC(=O)NS(=O)(=O)N1CCCC(NC(=O)c2cc3c(Cl)c(Cl)ccc3n2C)(c2cccc(C(=O)O)c2)C1` (racemic) [I-139 e14] stands 1000 to 5000 nM; under `CC(=O)NS(=O)(=O)N1CCC(NC(=O)c2cc3c(Cl)c(Cl)ccc3n2C)(c2cccc(CO)c2)CC1` [I-149 e12], 5000 to 10000 nM; under `Cn1c(C(=O)N[C@@]2(c3ccc(C(=O)O)cc3)CCOC2)cc2c(Cl)c(Cl)ccc21` (single isomer, unassigned; peak 2) [I-132 or I-133 e147 peak 2], 1 to 1000 nM.
As to `CC(=O)Nc1cccc(C2(NC(=O)c3cc4c(Cl)c(Cl)ccc4n3C)CCN(C(C)=O)CC2)c1` [I-150 e5], the IC50 lay within 5000 to 10000 nM.
The same measure, in the same setting: under `CNC(=O)NS(=O)(=O)N1CCCC(NC(=O)c2cc3c(Cl)c(Cl)ccc3n2C)(c2cccc(C#N)c2)C1` (racemic) [I-142 e7] stands 5000 to 10000 nM; under `CC(=O)NS(=O)(=O)N1CCC(NC(=O)c2cc3c(Cl)c(Cl)ccc3n2C)(c2cccc(C#N)c2)CC1` [I-154 e4], 5000 to 10000 nM; under `Cn1c(C(=O)NC2(c3ccc(C#N)cc3)CCOC2)cc2c(Cl)c(Cl)ccc21` (racemic) [I-134 e143, 4,5-dichloro-N-[3-(4-cyanophenyl)tetrahydrofuran-3-yl]-1-methyl-indole-2-carboxamide], 1000 to 5000 nM.
In turn, `CC(=O)NS(=O)(=O)N1CCC(NC(=O)c2cc3c(Cl)c(Cl)ccc3n2C)(c2ccccc2)C1` (racemic) [I-147 e8] yielded an IC50 of 1000 to 5000 nM.
In turn, `CC(=O)NS(=O)(=O)N1CCC(NC(=O)c2cc3c(Cl)c(Cl)ccc3n2C)(c2ccc(C(=O)O)cc2)CC1` [I-144 e11] gave a 50% inhibitory concentration (IC50) of 1 to 1000 nM.
The same measure, in the same setting: to `Cn1c(C(=O)NC2(c3ccc(C(=O)O)cc3)CCOC2)cc2c(Cl)c(Cl)ccc21` (racemic) [I-137 e141, (±)-4-[3-[(4,5-Dichloro-1-methyl-indole-2-carbonyl)amino]tetrahydrofuran-3-yl]benzoic acid] belongs 1 to 1000 nM.

The target of the next assay is T1, Full length (FL) 3-Phosphoglycerate Dehydrogenase (PHGDH). In words: Full length (FL) PHGDH Diaphorase coupled assay (500 uM NAD). To be noted: full-length PHGDH 5 nM, 30° C. 60 minutes, resorufin fluorescence. It is filed as biochemical. On the procedure:
Full length (FL) 3-Phosphoglycerate Dehydrogenase (PHGDH) Diaphorase coupled assay (500 uM NAD)
as §1
Briefly, serial dilution of compounds were incubated in a volume of 20 μL in 384 well plates with the assay mixture containing 5 nM PHGDH, 500 nM PSAT1, 500 nM PSPH, 500 μM NAD^+, 80 uM 3-phosphoglycerate, 1 mM glutamate, 57 uM Resazurin and 0.2 mg/ml Diaphorase in assay buffer containing 50 mM Trisethanoloamine (TEA) pH8.0, 10 mM MgCl2, 0.01% Tween-20 and 0.05% Bovine Serum Albumin (BSA). The plate was then incubated at 30° C. for 60 minutes and resorufin fluorescence was measured at emission wavelength 598 nm following excitation at 525 nm. The positive control consisted of the complete reaction mixture with 4% DMSO and was set to 0% inhibition.
The compound `COc1cc2c(cc(C(=O)NC3(c4ccc(CC(=O)O)cc4F)COC3)n2C)c(Cl)c1C` [I-62 e46] registered a half-inhibitory concentration (IC50) of 1 to 1000 nM.
`Cn1c(C(=O)NC2(c3ccc(C(=O)O)cc3)CCCOC2)cc2c(Cl)c(Cl)ccc21` (racemic) [I-123 e23] had an IC50 of 1 to 1000 nM.
Still for that read-out and setting: to `CC(C(=O)O)c1ccc(C2(NC(=O)c3cc4c(Cl)c(Cl)ccc4n3C)CCOC2)c(F)c1` (racemic) [I-57 e53] belongs 1 to 1000 nM; to `COc1cc2c(cc(C(=O)NC3(c4ccc(CC(=O)O)cc4F)COC3)n2C)c(Cl)c1Cl` [I-86 e45], 1 to 1000 nM.
In the case of `CC(C(=O)O)c1ccc(C2(NC(=O)c3cc4c(Cl)c(Cl)ccc4n3C)COC2)c(F)c1` (stereo not drawn) [I-70 e61], the 50% inhibitory concentration (IC50) was in the range of 1 to 1000 nM.
Same read-out and setting: to `COc1ccc2c(cc(C(=O)NC3(c4ccc(C(=O)O)cc4)CCOC3)n2C)c1Cl` (racemic) [I-122 e26] belongs 1 to 1000 nM; to `Cc1ccc2c(cc(C(=O)NC3(c4ccc(CC(=O)O)cc4F)COC3)n2C)c1Cl` [I-63 e44], 1 to 1000 nM.
Same read-out and setting: under `COc1cc2c(cc(C(=O)NC3(c4ccc(C(C(=O)O)C5CCCC5)cc4)COC3)n2C)c(Cl)c1Cl` (racemic) [I-22 e118] stands 1 to 1000 nM.
On the same count and under the same terms, under `COc1ccc2c(cc(C(=O)NC3(c4ccc(C(=O)O)cc4C)COC3)n2C)c1Cl` [I-60 e65] stands 1 to 1000 nM.
`CCCC(C(=O)O)c1ccc(C2(NC(=O)c3cc4c(Cl)c(Cl)ccc4n3C)COC2)cc1` (racemic) [I-24 e114] came in with an IC50 of 1 to 1000 nM.
`CC(c1ccc(C2(NC(=O)c3cc4c(Cl)c(Cl)ccc4n3C)CCOC2)cc1)c1nnn[nH]1` (racemic) [I-52 e91] gave an IC50 of 1 to 1000 nM.
Regarding `COc1cc2c(cc(C(=O)NC3(c4ccc(C(=O)O)cc4C)COC3)n2C)c(Cl)c1F` [I-47 e77], the IC50 is 1 to 1000 nM.
Compound `Cn1c(C(=O)NC2(c3ccc(C(=O)O)cc3)CCOC2)cc2c(Cl)c(Cl)c(OCc3ncc[nH]3)cc21` (racemic) [I-81 e105] gave an IC50 of 1 to 1000 nM.
On the same count and under the same terms, under `COc1ccc2c(cc(C(=O)NC3(c4ccc(CC(=O)O)cc4)COC3)n2C)c1Cl` [I-103 e39] stands 1 to 1000 nM; under `Cn1c(C(=O)NC2(c3ccc(C(=O)O)cn3)CCOC2)cc2c(Cl)c(Cl)ccc21` (racemic) [I-74 e27], 1 to 1000 nM.
On the same count and under the same terms, under `COc1ccc2c(cc(C(=O)NC3(c4ccc(C(=O)O)cc4Cl)COC3)n2C)c1Cl` [I-65 e69] stands 1 to 1000 nM; under `COc1ccc2c(cc(C(=O)NC3(c4ccc(C(CCCO)C(=O)O)cc4)COC3)n2C)c1Cl` (stereo not drawn) [I-11 e72], 1 to 1000 nM; under `Cn1c(C(=O)NC2(c3ccc(C4(C(=O)O)CCOC4)cc3)COC2)cc2c(Cl)c(Cl)ccc21` (racemic) [I-2 e125], 1 to 1000 nM.
On the same count and under the same terms, to `Cn1c(C(=O)NC2(c3ccc(C(C)(C)C(=O)O)cc3F)COC2)cc2c(Cl)c(Cl)ccc21` [I-37 e109] belongs 1 to 1000 nM.
`COc1ccc2c(cc(C(=O)NC3(c4ccc(S(=O)(=O)NC(C)=O)cc4)COC3)n2C)c1Cl` [I-164 e88] yielded an IC50 of 1 to 1000 nM.
Still for that read-out and setting: to `CCc1cc(C2(NC(=O)c3cc4c(Cl)c(Cl)ccc4n3C)CCOC2)ccc1C(=O)O` (racemic) [I-88 e156, (±)-4-[3-[(4,5-Dichloro-1-methyl-indole-2-carbonyl)amino]tetrahydro-furan-3-yl]-2-ethyl-benzoic acid] belongs 1000 to 5000 nM.
On to `Cn1c(C(=O)NC2(c3ccc(C(=O)O)cc3)CCOC2)cc2c(Cl)cc(OCC3CNC(=O)O3)cc21` (racemic) [I-95 e96], for which the IC50 was in the range of 1000 to 5000 nM.
Still for that read-out and setting: under `COc1ccc2c(cc(C(=O)NC3(c4ccc(C(C)C(=O)O)cc4)COC3)n2C)c1Cl` (racemic) [I-67 e59] stands 1 to 1000 nM; under `CC(C)C(C(=O)O)c1ccc(C2(NC(=O)c3cc4c(Cl)c(Cl)ccc4n3C)CCOC2)cc1` (racemic) [I-19 e94], 1 to 1000 nM.
On the same count and under the same terms, under `COc1ccc2c(cc(C(=O)NC3(c4ccc(C(C(=O)O)C5CCCC5)cc4)COC3)n2C)c1Cl` (racemic) [I-26 e130] stands 1 to 1000 nM; under `CN(C)CCOc1cc2c(cc(C(=O)NC3(c4ccc(C(=O)O)cc4)CCOC3)n2C)c(Cl)c1Cl` (racemic) [I-97 e102], 1 to 1000 nM.
On the same count and under the same terms, to `COc1ccc2c(cc(C(=O)NC3(c4ccc(C(=O)NS(C)(=O)=O)cc4)COC3)n2C)c1Cl` [I-162 e165, 4-Chloro-5-methoxy-1-methyl-N-(3-(4-((methylsulfonyl)carbamoyl)-phenyl)oxetan-3-yl)-1H-indole-2-carboxamide] belongs 1 to 1000 nM; to `Cn1c(C(=O)NC2(c3ccc(C(C(=O)O)C4CCC4)cc3)CCOC2)cc2c(Cl)c(Cl)ccc21` (racemic) [I-12 e86], 1 to 1000 nM.
In the case of `Cn1c(C(=O)NC2(c3ccc(C(C)(C)C(=O)O)cc3F)CCOC2)cc2c(Cl)c(Cl)ccc21` (racemic) [I-54 e79], the IC50 fell in the range of 1 to 1000 nM.
Same read-out and setting: to `COc1cc2c(cc(C(=O)NC3(c4ccc(C(C(=O)O)C(C)C)cc4)COC3)n2C)c(Cl)c1Cl` (racemic) [I-29 e135, (±)-2-[4-[3-[(4,5-Dichloro-6-methoxy-1-methyl-indole-2-carbonyl)amino]oxetan-3-yl]phenyl]-3-methyl-butanoic acid] belongs 1 to 1000 nM; to `COc1cc2c(cc(C(=O)NC3(c4ccc(C(C(=O)O)C(C)C)cc4)CCOC3)n2C)c(Cl)c1Cl` (racemic) [I-20 e83], 1 to 1000 nM.
